Assay results taken from patent publication US20120077828A1, “CHEMICAL COMPOUNDS” (priority 2010, published 2012).

Biological target: T1, PERK (Homo sapiens, UniProt Q9NZJ5)
T1 construct: GST-PERK (536-1116) cytoplasmic domain was purchased from Invitrogen; purchased Invitrogen PV5106
T1 sequence (Q9NZJ5 536-1116): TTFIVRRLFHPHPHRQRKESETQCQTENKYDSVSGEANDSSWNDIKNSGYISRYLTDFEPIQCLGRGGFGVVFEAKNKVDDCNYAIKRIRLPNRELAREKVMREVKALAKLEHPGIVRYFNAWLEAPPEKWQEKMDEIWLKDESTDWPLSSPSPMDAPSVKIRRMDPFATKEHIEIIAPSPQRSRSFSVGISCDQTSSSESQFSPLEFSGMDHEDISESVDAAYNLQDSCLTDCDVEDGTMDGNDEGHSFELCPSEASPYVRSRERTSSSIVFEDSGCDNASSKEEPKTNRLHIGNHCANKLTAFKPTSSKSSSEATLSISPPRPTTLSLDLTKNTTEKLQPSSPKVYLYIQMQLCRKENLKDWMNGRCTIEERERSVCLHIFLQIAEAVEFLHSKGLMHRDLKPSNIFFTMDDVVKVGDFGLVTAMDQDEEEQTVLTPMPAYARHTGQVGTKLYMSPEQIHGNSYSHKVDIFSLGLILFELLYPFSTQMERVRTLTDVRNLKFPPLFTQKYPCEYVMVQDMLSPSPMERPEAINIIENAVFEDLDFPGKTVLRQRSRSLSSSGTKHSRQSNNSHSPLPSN
Assay: PKR-like Endoplasmic Reticulum Kinase (PERK) Assay (HTRF Format)
Format: biochemical
Details: average, in at least one set of experimental runs; read-out: average pIC50 value against PERK (converted)
Description: PKR-like Endoplasmic Reticulum Kinase (PERK) Assay (HTRF Format)
Source of substrate: elF2α: 6-His-Full-length human elF2α is purified from baculovirus expression in Sf9 insect cells. The elF2 protein is buffer exchanged by dialysis into PBS, chemically modified by NHS-LC-Biotin and then buffer exchanged by dialysis into 50 mm TRIS pH 7.2/250 mM NaCl/5 mM DTT. Protein is aliquoted and stored at −80° C.
Assays were performed by adding GST-PERK solution to assay plates containing compounds and pre-incubated for 30 minutes at room temperature. The reaction is initiated by the addition of ATP and EIF2α substrate solution. Quench solution is added following a one hour incubation at room temperature. The plates are covered for 2 hours at room temperature prior to determination of signal. The resulting signal is quantified on a Viewlux Reader (PerkinElmer). The APC Signal is normalized to the Europium signal by transforming the data through an APC/Eu calculation.
Compounds under analysis were dissolved in DMSO to 1.0 mM and serially diluted 1 to 3 with DMSO through eleven dilutions. 0.1 μl of each concentration was transferred to the corresponding well of an assay plate. This creates a final compound concentration range from 0.00017 to 10 μM.
The data for concentration response curves were plotted as % Inhibition calculated with the data reduction formula 100*(1−(U1−C2)/(C1−C2)) versus concentration of compound where U is the unknown value, C1 is the average control value obtained for 1% DMSO, and C2 is the average control value obtained for 0.1 M EDTA. Data were fitted with a curve described by:
where A is the minimum y, B is the maximum y concentration [M], D is the slope factor, and x is the log10 of the compound.
In the above data, pIC50 is defined as −log(IC50) where the IC50 value is expressed in molar units.

Row | IC50 | Compound
1 | ≤ 2.51 nM | Cn1nc(-c2ccc3c(c2)CCN3C(=O)Cc2cccc(Cl)c2)c2c(N)ncnc21 [Example 42, 3-{1-[(3-chlorophenyl)acetyl]-2,3-dihydro-1H-indol-5-yl}-1-methyl-1H-pyrazolo[3,4-d]pyrimidin-4-amine]
2 | ≤ 2.51 nM | Nc1ncnc2occ(-c3ccc4c(c3)CCN4C(=O)Cc3cc(F)cc(C(F)(F)F)c3)c12 [Example 119, 5-(1-{[3-fluoro-5-(trifluoromethyl)phenyl]acetyl}-2,3-dihydro-1H-indol-5-yl)furo[2,3-d]pyrimidin-4-amine]
3 | ≤ 0.316 nM | Nc1ncnc2[nH]cc(-c3ccc4c(c3)CCN4C(=O)Cc3cccc(C(F)(F)F)c3)c12 [Example 148, 5-(1-{[3-(trifluoromethyl)phenyl]acetyl}-2,3-dihydro-1H-indol-5-yl)-1H-pyrrolo[2,3-d]pyrimidin-4-amine]
4 | ≤ 1 nM | Cn1cc(-c2ccc3c(c2)CCN3C(=O)Cc2cc(F)cc(F)c2)c2c(N)ncnc21 [Example 89, 5-{1-[(3,5-difluorophenyl)acetyl]-2,3-dihydro-1H-indol-5-yl}-7-methyl-7H-pyrrolo[2,3-d]pyrimidin-4-amine]
5 | ≤ 0.316 nM | Cc1cc(F)cc(CC(=O)N2CCc3cc(-c4nn(C)c5ncnc(N)c45)ccc32)c1 [Example 29, 3-{1-[(3-fluoro-5-methylphenyl)acetyl]-2,3-dihydro-1H-indol-5-yl}-1-methyl-1H-pyrazolo[3,4-d]pyrimidin-4-amine]
6 | ≤ 2.51 nM | Cn1cc(-c2ccc3c(c2)CCN3C(=O)Cc2ccccc2)c2c(N)ncnc21 [Example 4, 7-methyl-5-[1-(phenylacetyl)-2,3-dihydro-1H-indol-5-yl]-7H-pyrrolo[2,3-d]pyrimidin-4-amine]
7 | ≤ 1 nM | Cc1cccc(CC(=O)N2CCc3cc(-c4nn(C)c5ncnc(N)c45)ccc32)c1F [Example 74, 3-{1-[(2-fluoro-3-methylphenyl)acetyl]-2,3-dihydro-1H-indol-5-yl}-1-methyl-1H-pyrazolo[3,4-d]pyrimidin-4-amine]
8 | ≤ 0.316 nM | Cn1cc(-c2ccc3c(c2F)CCN3C(=O)Cc2cc(F)ccc2F)c2c(N)ncnc21 [Example 114, 5-{1-[(2,5-difluorophenyl)acetyl]-4-fluoro-2,3-dihydro-1H-indol-5-yl}-7-methyl-7H-pyrrolo[2,3-d]pyrimidin-4-amine]

Row | Compound | IC50
9 | Cc1ccccc1CC(=O)N1CCc2cc(-c3cn(C)c4ncnc(N)c34)ccc21 [Example 33, 7-methyl-5-{1-[(2-methylphenyl)acetyl]-2,3-dihydro-1H-indol-5-yl}-7H-pyrrolo[2,3-d]pyrimidin-4-amine] | ≤ 0.316 nM
10 | Cn1cc(-c2cnc(N)c3c(-c4ccc5c(c4)CCN5C(=O)Cc4ccccc4)csc23)cn1 [Example 14, 7-(1-methyl-1H-pyrazol-4-yl)-3-[1-(phenylacetyl)-2,3-dihydro-1H-indol-5-yl]thieno[3,2-c]pyridin-4-amine] | ≤ 2.51 nM
11 | Nc1nccc2scc(-c3ccc4c(c3)CCN4C(=O)Cc3cc(F)ccc3F)c12 [Example 6, 3-{1-[(2,5-difluorophenyl)acetyl]-2,3-dihydro-1H-indol-5-yl}thieno[3,2-c]pyridin-4-amine] | ≤ 2.51 nM
12 | Nc1ncc(-c2cn[nH]c2)c2scc(-c3ccc4c(c3)CCN4C(=O)Cc3ccccc3)c12 [Example 13, 3-[1-(phenylacetyl)-2,3-dihydro-1H-indol-5-yl]-7-(1H-pyrazol-4-yl)thieno[3,2-c]pyridin-4-amine] | ≤ 1 nM
13 | Nc1ncc(-c2ccncc2)c2scc(-c3ccc4c(c3)CCN4C(=O)Cc3ccccc3)c12 [Example 9, 3-[1-(phenylacetyl)-2,3-dihydro-1H-indol-5-yl]-7-(4-pyridinyl)thieno[3,2-c]pyridin-4-amine] | ≤ 1 nM
14 | Cc1cc(C)n(CC(=O)N2CCc3c2ccc(-c2cn(C)c4ncnc(N)c24)c3F)n1 [Example 138, 5-{1-[(3,5-dimethyl-1H-pyrazol-1-yl)acetyl]-4-fluoro-2,3-dihydro-1H-indol-5-yl}-7-methyl-7H-pyrrolo[2,3-d]pyrimidin-4-amine] | ≤ 2.51 nM
